Reference: PubChem BioAssay AID2060895 (Molecular Pharmacology Branch, DTP, NCI, 2025)
pIC50: −log10 of the molar value. “And” between values parts separate entries of the source, which are not always exact repeats. Equal entries are not always repeated. One block for each compound: values may come before it.

System: PDC 899932-113-R3-J6 complex spheroid viability
Assay: Anticancer human tumor 899932-113-R3-J6-PDC patient-derived melanoma cell line growth inhibition [RAS]
Conditions: for viability, T/C: stronger effect = lower value
How it was run: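 Agents were tested in combination matrices in half-log decrements from a top concentration at or near clinical Cmax (10 microM if undetermined). Targets were multi-cell spheroids of tumour lines plus HUVEC and MSC stromal cells.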

[1] = curve of first compound, second compound 0.00316 µM
[2] = curve of first compound, second compound 0.01 µM
[3] = curve of first compound, second compound 0.0316 µM
[4] = curve of first compound, second compound 0.1 µM
[5] = curve of first compound, second compound 0.316 µM
[6] = curve of first compound, second compound 1 µM
[7] = second compound 0.00316 µM, first compound 0.0316 µM
[8] = second compound 0.00316 µM, first compound 0.1 µM
[9] = second compound 0.00316 µM, first compound 0.316 µM
[10] = second compound 0.00316 µM, first compound 1 µM
[11] = second compound 0.01 µM, first compound 0.0316 µM
[12] = second compound 0.01 µM, first compound 0.1 µM
[13] = second compound 0.01 µM, first compound 0.316 µM
[14] = second compound 0.01 µM, first compound 1 µM
[15] = second compound 0.0316 µM, first compound 0.0316 µM
[16] = second compound 0.0316 µM, first compound 0.1 µM
[17] = second compound 0.0316 µM, first compound 0.316 µM
[18] = second compound 0.0316 µM, first compound 1 µM
[19] = second compound 0.1 µM, first compound 0.0316 µM
[20] = second compound 0.1 µM, first compound 0.1 µM
[21] = second compound 0.1 µM, first compound 0.316 µM
[22] = second compound 0.1 µM, first compound 1 µM
[23] = second compound 0.316 µM, first compound 0.0316 µM
[24] = second compound 0.316 µM, first compound 0.1 µM
[25] = second compound 0.316 µM, first compound 0.316 µM
[26] = second compound 0.316 µM, first compound 1 µM
[27] = second compound 1 µM, first compound 0.0316 µM
[28] = second compound 1 µM, first compound 0.1 µM
[29] = second compound 1 µM, first compound 0.316 µM
[30] = second compound 1 µM, first compound 1 µM
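For viability, T/C in this document: spheroids exposed to agents for seven days before readout; 100% = DMSO vehicle control wells.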

pIC50 [1]: > 7.50 | pIC50 [2]: > 7.50 | pIC50 [3]: > 7.50 | pIC50 [4]: > 7.50 | pIC50 [5]: > 7.50 | pIC50 [6]: > 7.50
SMILES: CC(=O)OC12COC1CC(O)C1(C)C(=O)C(O)C3=C(C)C(OC(=O)C(O)C(NC(=O)OC(C)(C)C)c4ccccc4)CC(O)(C(OC(=O)c4ccccc4)C21)C3(C)C (stereo not given) + C=CC(=O)N1CCN(c2nc(OCC3CCCN3C)nc3c(F)c(-c4nc(N)cc(C)c4C(F)(F)F)c(Cl)cc23)C(C)C1
viability, T/C [7]: 30.5% | viability, T/C [8]: 30.6% | viability, T/C [9]: 40% | viability, T/C [10]: 46.4% | viability, T/C (second compound 0.00316 µM, first compound 3.16 µM): 69.7% | viability, T/C (second compound 0.00316 µM, first compound 10 µM): 82.1% | viability, T/C [11]: 31.2% | viability, T/C [12]: 36.1% | viability, T/C [13]: 39.6% | viability, T/C [14]: 57.3% | viability, T/C (second compound 0.01 µM, first compound 3.16 µM): 49.5% | viability, T/C (second compound 0.01 µM, first compound 10 µM): 76.6% | viability, T/C [15]: 31% | viability, T/C [16]: 43.6% | viability, T/C [17]: 42.2% | viability, T/C [18]: 48.4% | viability, T/C (second compound 0.0316 µM, first compound 3.16 µM): 68.3% | viability, T/C (second compound 0.0316 µM, first compound 10 µM): 60.8% | viability, T/C [19]: 34.5% | viability, T/C [20]: 37.2% | viability, T/C [21]: 34.2% | viability, T/C [22]: 50.4% | viability, T/C (second compound 0.1 µM, first compound 3.16 µM): 73.6% | viability, T/C (second compound 0.1 µM, first compound 10 µM): 74% | viability, T/C [23]: 27.6% | viability, T/C [24]: 34.3% | viability, T/C [25]: 44.8% | viability, T/C [26]: 47.1% | viability, T/C (second compound 0.316 µM, first compound 3.16 µM): 75.1% | viability, T/C (second compound 0.316 µM, first compound 10 µM): 79% | viability, T/C [27]: 31.5% | viability, T/C [28]: 37.1% | viability, T/C [29]: 38.8% | viability, T/C [30]: 51% | viability, T/C (second compound 1 µM, first compound 3.16 µM): 68.5% | viability, T/C (second compound 1 µM, first compound 10 µM): 69.2%

pIC50 [1]: 6.38 | pIC50 [2]: 6.34 | pIC50 [3]: 6.35 | pIC50 [4]: 6.37 | pIC50 [5]: 6.33 | pIC50 [6]: 6.41
SMILES: CCN1CCN(Cc2ccc(Nc3ncc(F)c(-c4cc(F)c5nc(C)n(C(C)C)c5c4)n3)nc2)CC1 + C=CC(=O)N1CCN(c2nc(OCC3CCCN3C)nc3c(F)c(-c4nc(N)cc(C)c4C(F)(F)F)c(Cl)cc23)C(C)C1
viability, T/C (second compound 0.00316 µM, first compound 0.00316 µM): 102% | viability, T/C (second compound 0.00316 µM, first compound 0.01 µM): 92.3% | viability, T/C [7]: 88.7% | viability, T/C [8]: 78% | viability, T/C [9]: 62.2% | viability, T/C [10]: 18.8% | viability, T/C (second compound 0.01 µM, first compound 0.00316 µM): 99.9% | viability, T/C (second compound 0.01 µM, first compound 0.01 µM): 98.5% | viability, T/C [11]: 95.6% | viability, T/C [12]: 85.5% | viability, T/C [13]: 63% | viability, T/C [14]: 22.6% | viability, T/C (second compound 0.0316 µM, first compound 0.00316 µM): 98.4% | viability, T/C (second compound 0.0316 µM, first compound 0.01 µM): 101% | viability, T/C [15]: 103% | viability, T/C [16]: 89.5% | viability, T/C [17]: 63% | viability, T/C [18]: 20.6% | viability, T/C (second compound 0.1 µM, first compound 0.00316 µM): 109% | viability, T/C (second compound 0.1 µM, first compound 0.01 µM): 94% | viability, T/C [19]: 85.7% | viability, T/C [20]: 83% | viability, T/C [21]: 61.2% | viability, T/C [22]: 24% | viability, T/C (second compound 0.316 µM, first compound 0.00316 µM): 101% | viability, T/C (second compound 0.316 µM, first compound 0.01 µM): 106% | viability, T/C [23]: 90.5% | viability, T/C [24]: 81% | viability, T/C [25]: 65.9% | viability, T/C [26]: 23.9% | viability, T/C (second compound 1 µM, first compound 0.00316 µM): 107% | viability, T/C (second compound 1 µM, first compound 0.01 µM): 104% | viability, T/C [27]: 93% | viability, T/C [28]: 72.8% | viability, T/C [29]: 64.3% | viability, T/C [30]: 18%

Continued, compound first:

SMILES: Nc1ccn(C2OC(CO)C(O)C2(F)F)c(=O)n1 (stereo not given)
viability, T/C (compound 0.00316 µM): 103% (2×) and 77.4% and 105% | viability, T/C (compound 0.01 µM): 65.5% [middle of 4 runs] | viability, T/C (compound 0.0316 µM): 32.3% [middle of 4 runs] | viability, T/C (compound 0.1 µM): 19.3% [middle of 4 runs] | viability, T/C (compound 0.316 µM): 21% [middle of 4 runs] | viability, T/C (compound 1 µM): 22.2% [middle of 4 runs] | pIC50 (curve of compound): 7.77 and 7.99

SMILES: CCN1CCN(Cc2ccc(Nc3ncc(F)c(-c4cc(F)c5nc(C)n(C(C)C)c5c4)n3)nc2)CC1 + CCn1c(-c2cccnc2C(C)OC)c2c3cc(ccc31)N1CCOC(CC(NC(=O)C(C(C)C)N(C)C(=O)C3(F)CCN(C(=O)C#CC(C)(C)N(C)C)CC3)C(=O)N3CCCC(N3)C(=O)OCC(C)(C)C2)C1
pIC50 (curve of first compound, second compound 0.000949 µM): < 6.00 | pIC50 (curve of first compound, second compound 0.003 µM): 6.22 | pIC50 (curve of first compound, second compound 0.00949 µM): 6.29 | pIC50 (curve of first compound, second compound 0.03 µM): 6.28 | pIC50 (curve of first compound, second compound 0.0949 µM): 6.19 | pIC50 (curve of first compound, second compound 0.3 µM): < 6.00 | viability, T/C (second compound 0.000949 µM, first compound 0.00316 µM): 105% | viability, T/C (second compound 0.000949 µM, first compound 0.01 µM): 104% | viability, T/C (second compound 0.000949 µM, first compound 0.0316 µM): 99.5% | viability, T/C (second compound 0.000949 µM, first compound 0.1 µM): 82.7% | viability, T/C (second compound 0.000949 µM, first compound 0.316 µM): 52.9% | viability, T/C (second compound 0.000949 µM, first compound 1 µM): 52.1% | viability, T/C (second compound 0.003 µM, first compound 0.00316 µM): 108% | viability, T/C (second compound 0.003 µM, first compound 0.01 µM): 99.6% | viability, T/C (second compound 0.003 µM, first compound 0.0316 µM): 96.1% | viability, T/C (second compound 0.003 µM, first compound 0.1 µM): 84.2% | viability, T/C (second compound 0.003 µM, first compound 0.316 µM): 57.6% | viability, T/C (second compound 0.003 µM, first compound 1 µM): 43.1% | viability, T/C (second compound 0.00949 µM, first compound 0.00316 µM): 105% | viability, T/C (second compound 0.00949 µM, first compound 0.01 µM): 106% | viability, T/C (second compound 0.00949 µM, first compound 0.0316 µM): 96.6% | viability, T/C (second compound 0.00949 µM, first compound 0.1 µM): 85.6% | viability, T/C (second compound 0.00949 µM, first compound 0.316 µM): 52.4% | viability, T/C (second compound 0.00949 µM, first compound 1 µM): 45.4% | viability, T/C (second compound 0.03 µM, first compound 0.00316 µM): 103% | viability, T/C (second compound 0.03 µM, first compound 0.01 µM): 97.2% | viability, T/C (second compound 0.03 µM, first compound 0.0316 µM): 92.5% | viability, T/C (second compound 0.03 µM, first compound 0.1 µM): 77.7% | viability, T/C (second compound 0.03 µM, first compound 0.316 µM): 52.3% | viability, T/C (second compound 0.03 µM, first compound 1 µM): 45.5% | viability, T/C (second compound 0.0949 µM, first compound 0.00316 µM): 99.8% | viability, T/C (second compound 0.0949 µM, first compound 0.01 µM): 90.6% | viability, T/C (second compound 0.0949 µM, first compound 0.0316 µM): 88% | viability, T/C (second compound 0.0949 µM, first compound 0.1 µM): 73.1% | viability, T/C (second compound 0.0949 µM, first compound 0.316 µM): 55.7% | viability, T/C (second compound 0.0949 µM, first compound 1 µM): 46.2% | viability, T/C (second compound 0.3 µM, first compound 0.00316 µM): 91.4% | viability, T/C (second compound 0.3 µM, first compound 0.01 µM): 89.2% | viability, T/C (second compound 0.3 µM, first compound 0.0316 µM): 83.4% | viability, T/C (second compound 0.3 µM, first compound 0.1 µM): 70.5% | viability, T/C (second compound 0.3 µM, first compound 0.316 µM): 49.9% | viability, T/C (second compound 0.3 µM, first compound 1 µM): 53.3%

SMILES: CCC(CC)c1cc(NC2CCC(N)C2)n2nccc2n1 (stereo not given)
viability, T/C (compound 0.0316 µM): 106% [middle of 4 runs] | viability, T/C (compound 0.1 µM): 94.7% [middle of 4 runs] | viability, T/C (compound 0.316 µM): 99.3% [middle of 4 runs] | viability, T/C (compound 3.16 µM): 1.29% [middle of 4 runs] | viability, T/C (compound 10 µM): 1% [middle of 4 runs] | IC50 (curve of compound): 1.63 µM [middle of 4 runs]

SMILES: CC1(O)CCCC1n1c(=O)c(C(F)F)cc2cnc(NC3CCN(S(C)(=O)=O)CC3)nc21 (stereo not given)
viability, T/C (compound 0.0316 µM): 100% [middle of 4 runs] | viability, T/C (compound 0.1 µM): 83.3% [middle of 4 runs] | viability, T/C (compound 0.316 µM): 69.4% [middle of 4 runs] | viability, T/C (compound 1 µM): 65.9% [middle of 4 runs] | viability, T/C (compound 3.16 µM): 58.3% [middle of 4 runs] | viability, T/C (compound 10 µM): 21.9% [middle of 4 runs]
